Experiments:
[1] = molecular target: T1, Alpha-1A adrenergic receptor (Rattus norvegicus, UniProt P43140); test: DRUGMATRIX: Alpha-1A adrenergic receptor radioligand binding (ligand: prazosin); format: cell membranes, Wistar, Submaxillary gland, Membrane; conditions: Not Active = under 50% inhibition at 10 µM
T1 sequence (P43140 whole entry): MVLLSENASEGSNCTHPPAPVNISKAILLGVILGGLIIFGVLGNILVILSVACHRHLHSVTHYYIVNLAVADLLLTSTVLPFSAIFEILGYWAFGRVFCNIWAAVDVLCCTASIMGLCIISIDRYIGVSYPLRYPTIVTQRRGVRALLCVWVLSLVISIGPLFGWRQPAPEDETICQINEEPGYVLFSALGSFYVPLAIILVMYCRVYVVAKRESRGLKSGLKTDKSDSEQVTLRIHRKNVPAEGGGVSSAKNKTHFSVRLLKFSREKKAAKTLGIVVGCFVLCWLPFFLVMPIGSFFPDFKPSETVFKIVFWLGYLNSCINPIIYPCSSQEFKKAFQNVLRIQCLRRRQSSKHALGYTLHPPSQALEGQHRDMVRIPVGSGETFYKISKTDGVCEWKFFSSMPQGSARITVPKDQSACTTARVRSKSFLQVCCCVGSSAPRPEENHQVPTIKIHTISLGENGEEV

[2] = DRUGMATRIX: Calcium Channel Type L, Benzothiazepine radioligand binding (ligand: [3H] Diltiazem); format: cell membranes, Rattus norvegicus, Wistar, Brain, Membrane; conditions: Not Active = under 50% inhibition at 10 µM
[3] = molecular target: T2, C-C chemokine receptor type 4 (Homo sapiens, UniProt P51679); format: cell membranes, Membrane; conditions: chem-1; note: in other assays of this panel Not Active means under 50% inhibition at 10 µM
T2 sequence (P51679 whole entry): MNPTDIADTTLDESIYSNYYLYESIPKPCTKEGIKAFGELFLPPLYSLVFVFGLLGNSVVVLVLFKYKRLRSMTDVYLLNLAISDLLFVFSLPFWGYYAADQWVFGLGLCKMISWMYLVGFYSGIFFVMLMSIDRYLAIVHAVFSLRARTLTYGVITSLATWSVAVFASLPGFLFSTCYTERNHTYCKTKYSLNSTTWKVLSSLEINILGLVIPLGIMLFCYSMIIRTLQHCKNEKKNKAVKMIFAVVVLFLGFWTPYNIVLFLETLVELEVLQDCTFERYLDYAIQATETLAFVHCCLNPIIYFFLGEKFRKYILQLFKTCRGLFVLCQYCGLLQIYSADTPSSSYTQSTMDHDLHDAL

[4] = molecular target: C-C chemokine receptor type 5 (Homo sapiens, UniProt P51681); format: cell membranes, Membrane; conditions: hek293; note: in other assays of this panel Not Active means under 50% inhibition at 10 µM
[5] = molecular target: T3, C-X-C chemokine receptor type 1 (Homo sapiens, UniProt P25024); note: in other assays of this panel Not Active means under 50% inhibition at 10 µM
T3 sequence (P25024 whole entry): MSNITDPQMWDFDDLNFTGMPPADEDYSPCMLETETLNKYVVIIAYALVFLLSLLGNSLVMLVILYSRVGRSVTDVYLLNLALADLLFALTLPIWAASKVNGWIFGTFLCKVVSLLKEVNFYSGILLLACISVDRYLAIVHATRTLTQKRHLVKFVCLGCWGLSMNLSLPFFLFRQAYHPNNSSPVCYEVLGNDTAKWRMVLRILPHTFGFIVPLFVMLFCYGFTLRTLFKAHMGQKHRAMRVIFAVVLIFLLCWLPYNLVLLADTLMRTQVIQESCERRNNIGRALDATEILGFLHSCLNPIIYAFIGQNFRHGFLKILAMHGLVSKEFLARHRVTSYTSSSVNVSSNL

[6] = molecular target: T4, Cholecystokinin receptor type A (Homo sapiens, UniProt P32238); format: cell membranes, Membrane; conditions: 1321-n1; note: in other assays of this panel Not Active means under 50% inhibition at 10 µM
T4 sequence (P32238 whole entry): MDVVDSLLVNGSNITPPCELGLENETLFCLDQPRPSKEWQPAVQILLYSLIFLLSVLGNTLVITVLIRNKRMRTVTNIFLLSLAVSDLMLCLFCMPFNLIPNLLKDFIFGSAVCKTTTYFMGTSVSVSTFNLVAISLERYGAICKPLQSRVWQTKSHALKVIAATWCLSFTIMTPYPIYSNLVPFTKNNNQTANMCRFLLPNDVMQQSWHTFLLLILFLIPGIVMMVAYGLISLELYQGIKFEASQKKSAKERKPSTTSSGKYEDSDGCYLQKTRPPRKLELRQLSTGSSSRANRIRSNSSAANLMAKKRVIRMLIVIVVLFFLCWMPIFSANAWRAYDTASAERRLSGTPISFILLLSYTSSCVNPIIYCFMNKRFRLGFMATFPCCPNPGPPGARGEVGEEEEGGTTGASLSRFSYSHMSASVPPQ

[7] = molecular target: 5-hydroxytryptamine receptor 1B (Rattus norvegicus, UniProt P28564); format: cell membranes, Wistar, Cerebral cortex, Membrane; note: in other assays of this panel Not Active means under 50% inhibition at 10 µM
Chain of 5-hydroxytryptamine receptor 1B (P28564 whole entry): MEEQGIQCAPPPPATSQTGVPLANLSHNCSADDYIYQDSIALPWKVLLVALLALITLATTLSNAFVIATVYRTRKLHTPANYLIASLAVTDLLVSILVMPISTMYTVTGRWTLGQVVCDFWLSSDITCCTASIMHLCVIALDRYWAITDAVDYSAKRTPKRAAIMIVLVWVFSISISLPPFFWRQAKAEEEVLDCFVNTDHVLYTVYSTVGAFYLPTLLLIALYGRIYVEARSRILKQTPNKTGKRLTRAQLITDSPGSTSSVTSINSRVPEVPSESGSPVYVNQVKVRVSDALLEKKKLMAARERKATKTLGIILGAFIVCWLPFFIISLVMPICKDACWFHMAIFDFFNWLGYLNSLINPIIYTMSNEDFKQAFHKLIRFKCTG

Chain of C-C chemokine receptor type 5 (P51681 whole entry): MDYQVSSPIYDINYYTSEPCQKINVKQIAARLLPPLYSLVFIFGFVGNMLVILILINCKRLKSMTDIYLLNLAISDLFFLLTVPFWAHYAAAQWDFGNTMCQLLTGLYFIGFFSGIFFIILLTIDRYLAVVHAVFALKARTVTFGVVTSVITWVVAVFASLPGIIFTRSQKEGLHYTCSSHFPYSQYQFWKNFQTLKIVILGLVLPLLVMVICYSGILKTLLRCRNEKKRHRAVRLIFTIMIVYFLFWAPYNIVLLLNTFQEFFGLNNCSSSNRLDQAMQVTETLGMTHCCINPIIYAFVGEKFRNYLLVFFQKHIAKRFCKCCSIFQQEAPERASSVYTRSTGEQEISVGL

| SMILES | IC50 [1] | IC50 [2] | Ki [2] | IC50 [3] | IC50 [4] | IC50 [5] | IC50 [6] | IC50 [7] | IC50 ([2]; read-out: IC50) | Ki ([2]; read-out: Ki) | IC50 ([1]; read-out: IC50) | Ki ([1]; read-out: Ki) | IC50 ([7]; read-out: IC50) | Ki ([7]; read-out: Ki) |
| --- | --- | --- | --- | --- | --- | --- | --- | --- | --- | --- | --- | --- | --- | --- |
| O=C(c1ccccc1C(F)(F)F)N1CCC(Cc2ccccc2)CC1 | Not Active | Not Active | Not Active | Not Active | Not Active | Not Active | Not Active | Not Active |  |  |  |  |  |  |
| O=C/C=C/c1ccccc1 | Not Active | Not Active | Not Active | Not Active | Not Active | Not Active | Not Active | Not Active |  |  |  |  |  |  |
| Nc1ccc2c3c(cccc13)C(=O)NC2=O | Not Active | Not Active | Not Active | Not Active | Not Active | Not Active | Not Active | Not Active |  |  |  |  |  |  |
| COc1ccc(C(=O)N2CCCC2=O)cc1 | Not Active | Not Active | Not Active | Not Active | Not Active | Not Active | Not Active | Not Active |  |  |  |  |  |  |
| O=c1cnn([C@@H]2O[C@H](CO)[C@@H](O)[C@H]2O)c(=O)[nH]1 [6-AZAURIDINE] | Not Active | Not Active | Not Active | Not Active | Not Active | Not Active | Not Active | Not Active |  |  |  |  |  |  |
| CC[C@H](C)[C@H]1O[C@]2(C=C[C@@H]1C)C[C@@H]1C[C@@H](C/C=C(\C)[C@@H](O[C@H]3C[C@H](OC)[C@@H](O[C@H]4C[C@H](OC)[C@@H](O)[C@H](C)O4)[C@H](C)O3)[C@@H](C)/C=C/C=C3\CO[C@@H]4[C@H](O)C(C)=C[C@@H](C(=O)O1)[C@]34O)O2.CO[C@H]1C[C@H](O[C@H]2[C@H](C)O[C@@H](O[C@@H]3/C(C)=C/C[C@@H]4C[C@@H](C[C@]5(C=C[C@H](C)[C@@H](C(C)C)O5)O4)OC(=O)[C@@H]4C=C(C)[C@@H](O)[C@H]5OC/C(=C\C=C\[C@@H]3C)[C@]54O)C[C@@H]2OC)O[C@@H](C)[C@@H]1O [ABAMECTIN] | Not Active | Not Active | Not Active | Not Active | Not Active | Not Active | Not Active | Not Active |  |  |  |  |  |  |
| NCCCC(O)(P(=O)(O)O)P(=O)(O)O [ALENDRONIC ACID] | Not Active | Not Active | Not Active | Not Active | Not Active | Not Active | Not Active | Not Active |  |  |  |  |  |  |
| Cc1nnc2n1-c1ccc(Cl)cc1C(c1ccccc1)=NC2 [ALPRAZOLAM] | Not Active | Not Active | Not Active | Not Active | Not Active | Not Active | Not Active | Not Active |  |  |  |  |  |  |
| Cn1c(=O)c2[nH]cnc2n(C)c1=O.Cn1c(=O)c2[nH]cnc2n(C)c1=O.NCCN [AMINOPHYLLINE] | Not Active | Not Active | Not Active | Not Active | Not Active | Not Active | Not Active | Not Active |  |  |  |  |  |  |
| CCC1(CCC(C)C)C(=O)NC(=O)NC1=O [AMOBARBITAL] | Not Active | Not Active | Not Active | Not Active | Not Active | Not Active | Not Active | Not Active |  |  |  |  |  |  |
| CC1(C)S[C@@H]2[C@H](NC(=O)[C@H](N)c3ccccc3)C(=O)N2[C@H]1C(=O)O [AMPICILLIN] | Not Active | Not Active | Not Active | Not Active | Not Active | Not Active | Not Active | Not Active |  |  |  |  |  |  |
| COc1ccc(C2C(=O)c3ccccc3C2=O)cc1 [ANISINDIONE] | Not Active | Not Active | Not Active | Not Active | Not Active | Not Active | Not Active | Not Active |  |  |  |  |  |  |
| O=C1O[C@H]([C@@H](O)CO)C(O)=C1O [ASCORBIC ACID] | Not Active | Not Active | Not Active | Not Active | Not Active | Not Active | Not Active | Not Active |  |  |  |  |  |  |
| CN1[C@@H]2CC[C@H]1C[C@@H](OC(=O)C(CO)c1ccccc1)C2 (stereo partly drawn) [ATROPINE] | Not Active | Not Active | Not Active | Not Active | Not Active | Not Active | Not Active | Not Active |  |  |  |  |  |  |
| CC(C(=O)O)c1ccc2oc(-c3ccc(Cl)cc3)nc2c1 (stereo not drawn) [BENOXAPROFEN] | Not Active | Not Active | Not Active | Not Active | Not Active | Not Active | Not Active | Not Active |  |  |  |  |  |  |
| COc1ccc2cc3[n+](cc2c1OC)CCc1cc2c(cc1-3)OCO2.[Cl-] [BERBERINE CHLORIDE] | Not Active | Not Active | Not Active | Not Active | Not Active | Not Active | Not Active | Not Active |  |  |  |  |  |  |
| O=C(O)CCNC(=O)c1ccccc1 [BETAMIPRON] | Not Active | Not Active | Not Active | Not Active | Not Active | Not Active | Not Active | Not Active |  |  |  |  |  |  |
| CC(=O)Oc1ccc(C(c2ccc(OC(C)=O)cc2)c2ccccn2)cc1 [BISACODYL] | Not Active | Not Active | Not Active | Not Active | Not Active | Not Active | Not Active | Not Active |  |  |  |  |  |  |
| Cc1cc2c(OCC(CNC(C)(C)C)OC(=O)c3ccccc3)cccc2[nH]1 (stereo not drawn) [BOPINDOLOL] | Not Active |  |  | Not Active | Not Active | Not Active | Not Active | Not Active | 2.81 µM | 2.49 µM |  |  |  |  |
| Brc1c(NC2=NCCN2)ccc2nccnc12 [BRIMONIDINE] |  | Not Active | Not Active | Not Active | Not Active | Not Active | Not Active | Not Active |  |  | 6.34 µM | 2.57 µM |  |  |
| C[C@@H](CO)NC(=O)[C@@H]1C=C2c3cccc4[nH]cc(c34)C[C@H]2N(C)C1 [ERGONOVINE] | Not Active | Not Active | Not Active | Not Active | Not Active | Not Active |  |  |  |  |  |  | 0.00285 µM | 0.00129 µM |
| CC(=O)O[C@H]1C(=O)[C@@]2(C)[C@H]([C@H](OC(=O)c3ccccc3)[C@]3(O)C[C@H](OC(=O)[C@H](O)[C@@H](NC(=O)c4ccccc4)c4ccccc4)C(C)=C1C3(C)C)[C@]1(OC(C)=O)CO[C@@H]1C[C@@H]2O [PACLITAXEL] | Not Active | Not Active | Not Active | Not Active | Not Active | Not Active |  | Not Active |  |  |  |  |  |  |
| COc1cc2nc(N3CCN(C(=O)c4ccco4)CC3)nc(N)c2cc1OC [PRAZOSIN] |  | Not Active | Not Active | Not Active | Not Active | Not Active | Not Active | Not Active |  |  |  |  |  |  |

From ChEMBL document CHEMBL1909046, “DrugMatrix in vitro pharmacology data”
